Experimental data: PubChem BioAssay (NCI)
Where “and” joins values, the source holds several entries; their conditions need not be identical. Equal values may be shown once.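 Abbreviation: GI50, concentration required for 50% inhibition of growth. TGI: total growth inhibition.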

Tests used:
Test in all cases: NCI anticancer screen, dose series, 384-well format
UACC-62 melanoma = tested on: UACC-62 melanoma
HL-60(TB) leukemia = tested on: HL-60(TB) leukemia
NCI-H322M lung = tested on: NCI-H322M lung
MALME-3M melanoma = tested on: MALME-3M melanoma
KM12 colon = tested on: KM12 colon
ACHN renal = tested on: ACHN renal
HS 578T breast = tested on: HS 578T breast
U251 glioblastoma = tested on: U251 glioblastoma
MCF7 breast = tested on: MCF7 breast
UACC-257 melanoma = tested on: UACC-257 melanoma
K-562 leukemia = tested on: K-562 leukemia
DU-145 prostate = tested on: DU-145 prostate
RXF 393 renal = tested on: RXF 393 renal
TK-10 renal = tested on: TK-10 renal
T-47D breast = tested on: T-47D breast
NCI-H226 lung = tested on: NCI-H226 lung
MDA-MB-468 breast = tested on: MDA-MB-468 breast
SW-620 colon = tested on: SW-620 colon
OVCAR-3 ovarian = tested on: OVCAR-3 ovarian
SK-MEL-5 melanoma = tested on: SK-MEL-5 melanoma
CAKI-1 renal = tested on: CAKI-1 renal
NCI-H460 NSCLC = tested on: NCI-H460 NSCLC
SK-MEL-2 melanoma = tested on: SK-MEL-2 melanoma
IGROV1 ovarian = tested on: IGROV1 ovarian
COLO 205 colon = tested on: COLO 205 colon
MDA-MB-231 breast = tested on: MDA-MB-231 breast
SF-295 CNS = tested on: SF-295 CNS
A549 NSCLC = tested on: A549 NSCLC

For `COc1ccc(C2=N[C@@H](c3ccc(Cl)cc3)[C@@H](c3ccc(Cl)cc3)N2C(=O)N2CCNC(=O)C2)c(OC(C)C)c1`, the TGI (UACC-62 melanoma) was 21.8 µM and 8.99 µM and 11.3 µM, the GI50 (HL-60(TB) leukemia) was 2.99 µM and 3.06 µM and 3.55 µM and the TGI (HL-60(TB) leukemia) was 12.9 µM and 15.7 µM and 15.8 µM. For the same molecule, the GI50 (NCI-H322M lung) was 19.3 µM and 17.7 µM and 13.7 µM, the TGI (NCI-H322M lung) was 33.6 µM and 31.6 µM and 26.7 µM and the GI50 (MALME-3M melanoma) was 8.12 µM and 2.75 µM and 5.41 µM. The TGI (MALME-3M melanoma) was 20.3 µM and 19.3 µM and 19.7 µM, the TGI (KM12 colon) was 27.8 µM and 12.7 µM and 12.3 µM and the TGI (ACHN renal) was 24.2 µM and 11.4 µM and 11.2 µM. The GI50 (HS 578T breast) was 13.4 µM and 12.8 µM and 12.2 µM, the TGI (HS 578T breast) was 26.2 µM and 25.5 µM and 24.7 µM and the GI50 (U251 glioblastoma) was 14.7 µM and 13.7 µM and 10.9 µM. For the same molecule, the TGI (U251 glioblastoma) was 28 µM and 26.7 µM and 22.9 µM, the GI50 (MCF7 breast) was 3.43 µM and 1.73 µM and 0.718 µM and the TGI (MCF7 breast) was 16.8 µM and 8.38 µM and 8.52 µM. For the same molecule, the GI50 (UACC-257 melanoma) was 15.5 µM and 5.8 µM and 8.65 µM, the TGI (UACC-257 melanoma) was 28.9 µM and 18 µM and 20.8 µM and the GI50 (K-562 leukemia) was 11.4 µM and 4.93 µM and 2.55 µM. The TGI (K-562 leukemia) was 23.9 µM and 20.3 µM and 17 µM, the GI50 (DU-145 prostate) was 15.2 µM and 15.7 µM and the TGI (DU-145 prostate) was 28.6 µM and 29.3 µM and 28.7 µM. For the same molecule, the TGI (RXF 393 renal) was 24.8 µM and 16.3 µM and 14.9 µM, the GI50 (TK-10 renal) was 15.1 µM and 13.5 µM and 11.3 µM and the TGI (TK-10 renal) was 28.5 µM and 26.4 µM and 23.5 µM. For the same molecule, the GI50 (T-47D breast) was 17 µM and 14.7 µM and 13.8 µM, the TGI (T-47D breast) was 30.7 µM and 28 µM and 26.7 µM and the TGI (NCI-H226 lung) was 23.7 µM and 2.47 µM and 3.4 µM. For the same molecule, the GI50 (MDA-MB-468 breast) was 12.4 µM and 11 µM and 11.5 µM, the TGI (MDA-MB-468 breast) was 24.9 µM and 23 µM and 23.7 µM and the GI50 (SW-620 colon) was 13.1 µM and 11 µM and 3.58 µM. The TGI (SW-620 colon) was 26 µM and 23.3 µM and 19.4 µM, the GI50 (OVCAR-3 ovarian) was 12.8 µM and 12 µM and 12.1 µM and the TGI (OVCAR-3 ovarian) was 25.5 µM and 24.6 µM. For the same molecule, the GI50 (SK-MEL-5 melanoma) was 14.3 µM and 8.52 µM and 7.04 µM, the TGI (SK-MEL-5 melanoma) was 27.5 µM and 20.6 µM and 20 µM and the TGI (CAKI-1 renal) was 21.1 µM and 11.9 µM and 12.4 µM. For the same molecule, the GI50 (NCI-H460 NSCLC) was 15.3 µM and 10.4 µM and 8.98 µM, the TGI (NCI-H460 NSCLC) was 28.9 µM and 22.5 µM and 21.3 µM and the GI50 (SK-MEL-2 melanoma) was 18.7 µM and 18.1 µM and 14.5 µM. For the same molecule, the TGI (SK-MEL-2 melanoma) was 32.7 µM and 32.1 µM and 27.7 µM, the GI50 (IGROV1 ovarian) was 13.5 µM and 10.9 µM and 7.76 µM and the TGI (IGROV1 ovarian) was 26.5 µM and 23 µM and 21 µM. For the same molecule, the GI50 (COLO 205 colon) was 15.9 µM and 16.8 µM and 14.9 µM, the TGI (COLO 205 colon) was 29.5 µM and 30.7 µM and 28.3 µM and the GI50 (MDA-MB-231 breast) was 17 µM and 14.1 µM and 12.9 µM. The TGI (MDA-MB-231 breast) was 30.8 µM and 27.1 µM and 25.6 µM, the GI50 (SF-295 CNS) was 15.3 µM and 14.5 µM and 12.9 µM and the TGI (SF-295 CNS) was 28.7 µM and 27.7 µM and 25.7 µM. The GI50 (A549 NSCLC) was 14.6 µM and 2.28 µM and 2.23 µM.
